In one data set the test system is Ehrlich carcinoma. Description: Antineoplastic effect on Ehrlich carcinoma in mice (survival, T/C percent). The class given is in vivo, male ICR mouse. The conditions noted are these: in the abdomen once a day for 7 days; for response vs control in vivo at 2 mg/kg / response vs control in vivo at 4 mg/kg / response vs control in vivo at 8 mg/kg / response vs control in vivo at 16 mg/kg / response vs control in vivo at 32 mg/kg / response vs control in vivo at 1 mg/kg: Mus musculus, Ehrlich, ip, 720 h. As for the experimental part: Antineoplastic effect on Ehrlich carcinoma:
(§1) About 10^6/0.2 ml of Ehrlich carcinoma cells were placed in an abdomen of each male ICR mouse of 5 weeks old. On the next day the administration of the test sample in the abdomen was started. The test sample was given once a day for 7 days. For an untreated group, a physiological saline solution was given in the same manner as above. […] The T/C percent (T/C x 100) was determined from the average survival periods (days) of the treated group and control group. Further, 50 % lethal dose (LD50) was determined from the number of the mice which died of toxicity of the test samples administered.

Data set [1] is described as follows: 50 % lethal dose from toxic deaths in the Ehrlich carcinoma experiment. The class given is in vivo, male ICR mouse. The following applies: mice bearing Ehrlich carcinoma, in the abdomen once a day for 7 days; for LD50 at 720 h: mouse, in vivo, ip; for LD50: 43200 min. How it is done: as §1
The mark [2] stands for this setting: dose 1.0 mg/kg, observation period 60 days.
Setting [3] is: dose 2.0 mg/kg, observation period 60 days.
[4] abbreviates: dose 4.0 mg/kg, observation period 60 days.
[5] abbreviates: dose 8.0 mg/kg, observation period 60 days.
[6] abbreviates: dose 2.0 mg/kg, observation period 30 days.
Where [7] appears, read: dose 4.0 mg/kg, observation period 30 days.
[8] abbreviates: dose 8.0 mg/kg, observation period 30 days.

A value given as a limit tells only on which side of the number the result lay.

Consider “2,2-dimethyl-1,3-propanediol selenite [Compound 18]”, for which the “Antineoplastic effect (T/C percent)” value came to 164% with Ehrlich carcinoma (setting [2]), 193% in the data set with Ehrlich carcinoma (setting [3]), 194% in the data set on Ehrlich carcinoma (setting [4]) and 194% in the data set with Ehrlich carcinoma (setting [5]).

With 2,3-butanediol selenite [Compound 16], the “Antineoplastic effect (T/C percent)” value is 185% in the data set with Ehrlich carcinoma (setting [2]), 216% with Ehrlich carcinoma (setting [3]), 261% with Ehrlich carcinoma (setting [4]) and 174% in the data set with Ehrlich carcinoma (setting [5]).

Consider `O=[Se](O)c1ccccc1` [Compound 1, phenylseleninic acid], for which the response vs control in vivo at 2 mg/kg in the data set on Ehrlich carcinoma (setting [6]) and in the data set with Ehrlich carcinoma (setting [3]) was 123% throughout. Besides, the response vs control in vivo at 4 mg/kg with Ehrlich carcinoma (setting [7]) and in the data set on Ehrlich carcinoma (setting [4]) was 129% throughout. The response vs control in vivo at 8 mg/kg in the data set with Ehrlich carcinoma (setting [8]) and with Ehrlich carcinoma (setting [5]) was 141% in each case. Besides, the response vs control in vivo at 16 mg/kg in the data set on Ehrlich carcinoma (observation period 30 days) and with Ehrlich carcinoma (observation period 60 days) was 149% throughout. In addition, the LD50 at 720 h in data set [1] was more than 16 mg/kg.

For the compound `CCO[Se](=O)c1ccccc1` (centres unmarked) [Compound 2, ethyl phenylseleninate], the response vs control in vivo at 4 mg/kg in the data set with Ehrlich carcinoma (setting [7]) and with Ehrlich carcinoma (setting [4]) was 118% throughout. The response vs control in vivo at 8 mg/kg in the data set on Ehrlich carcinoma (setting [8]) and with Ehrlich carcinoma (setting [5]) was 134% each time. The results for the response vs control in vivo at 32 mg/kg in the data set with Ehrlich carcinoma (observation period 30 days) and with Ehrlich carcinoma (observation period 60 days) were 87.9% and 88%, respectively. Besides, the response vs control in vivo at 16 mg/kg in the data set on Ehrlich carcinoma (observation period 30 days) stood at 150%; in the data set on Ehrlich carcinoma (observation period 60 days), 193%. The LD50 at 720 h in data set [1] lay in the range of 16 to 32 mg/kg.

As to `CCO[Se](=O)OCC` [Compound 9, diethyl selenite], the response vs control in vivo at 2 mg/kg in the data set on Ehrlich carcinoma (setting [3]) stood at 246%. In addition, the response vs control in vivo at 4 mg/kg in the data set on Ehrlich carcinoma (setting [4]) stood at 203%. In the data set on Ehrlich carcinoma (setting [5]), this compound yielded a response vs control in vivo at 8 mg/kg of 201%. This compound gave a response vs control in vivo at 16 mg/kg in the data set on Ehrlich carcinoma (observation period 60 days) of 14%. This compound also gave an LD50 at 720 h in data set [1] of 4 to 8 mg/kg.

In the case of `CCCO[Se](=O)OCCC` [Compound 10, di(n-propyl) selenite], in the data set on Ehrlich carcinoma (setting [3]), the response vs control in vivo at 2 mg/kg was 175%. In the data set on Ehrlich carcinoma (setting [4]), this compound yielded a response vs control in vivo at 4 mg/kg of 170%. In addition, the response vs control in vivo at 8 mg/kg with Ehrlich carcinoma (setting [5]) was determined as 102%. Moreover, the response vs control in vivo at 16 mg/kg in the data set on Ehrlich carcinoma (observation period 60 days) is 14%. For the same compound, in data set [1], the LD50 at 720 h came out at 8 mg/kg.

In turn, `CC(C)O[Se](=O)OC(C)C` [Compound 11, diisopropyl selenite] returned a response vs control in vivo at 2 mg/kg with Ehrlich carcinoma (setting [3]) of 204%. Also, in the data set with Ehrlich carcinoma (setting [4]), the response vs control in vivo at 4 mg/kg was found to be 236%. The response vs control in vivo at 8 mg/kg in the data set on Ehrlich carcinoma (setting [5]) was 126%. In the data set on Ehrlich carcinoma (observation period 60 days), this compound gave a response vs control in vivo at 16 mg/kg of 14%. For the same compound, the LD50 at 720 h in data set [1] was 4 to 8 mg/kg.

Regarding `O=[Se](OCCCl)OCCCl` [Compound 12, di(2-chloroethyl) selenite], the response vs control in vivo at 2 mg/kg in the data set on Ehrlich carcinoma (setting [3]) is 197%. For the same compound, the response vs control in vivo at 4 mg/kg with Ehrlich carcinoma (setting [4]) stood at 225%. Besides, in the data set with Ehrlich carcinoma (setting [5]), the response vs control in vivo at 8 mg/kg is 194%. For the same compound, in the data set on Ehrlich carcinoma (observation period 60 days), the response vs control in vivo at 16 mg/kg turned out to be 65%. This compound came in with an LD50 at 720 h in data set [1] of 8 mg/kg.

As for `CC(Cl)CO[Se](=O)OCC(C)Cl` (centres unmarked) [Compound 13, di(2-chloropropyl) selenite], the response vs control in vivo at 2 mg/kg in the data set with Ehrlich carcinoma (setting [3]) came out at 190%. Moreover, the response vs control in vivo at 4 mg/kg with Ehrlich carcinoma (setting [4]) was determined as 234%. The compound further came in with a response vs control in vivo at 8 mg/kg in the data set on Ehrlich carcinoma (setting [5]) of 219%. The compound further displayed a response vs control in vivo at 16 mg/kg in the data set with Ehrlich carcinoma (observation period 60 days) of 71%. In data set [1], the LD50 at 720 h lay in the range of 8 to 16 mg/kg.

For the compound `CC1CO[Se](=O)O1` (centres unmarked) [Compound 15, 1,2-propanediol selenite], in the data set on Ehrlich carcinoma (setting [2]), the response vs control in vivo at 1 mg/kg stood at 227%. Also, in the data set on Ehrlich carcinoma (setting [3]), the response vs control in vivo at 2 mg/kg amounted to 258%. This compound had a response vs control in vivo at 4 mg/kg with Ehrlich carcinoma (setting [4]) of 204%. Moreover, the response vs control in vivo at 8 mg/kg in the data set with Ehrlich carcinoma (setting [5]) was found to be 105%. The compound also had an LD50 at 720 h in data set [1] of 8 mg/kg.

`O=[Se]1OCCCO1` [Compound 17, 1,3-propanediol selenite]: the response vs control in vivo at 1 mg/kg in the data set with Ehrlich carcinoma (setting [2]) amounted to 174%. The compound also registered a response vs control in vivo at 2 mg/kg in the data set with Ehrlich carcinoma (setting [3]) of 221%. The compound further had a response vs control in vivo at 4 mg/kg in the data set on Ehrlich carcinoma (setting [4]) of 197%. This compound also had a response vs control in vivo at 8 mg/kg in the data set with Ehrlich carcinoma (setting [5]) of 83%. In data set [1], the LD50 at 720 h was in the range of 4 to 8 mg/kg.

For the compound “selenium oxybromide·dioxane complex [Compound 8]”, the figures for the “Antineoplastic effect (T/C percent)” value with Ehrlich carcinoma (setting [3]), in the data set on Ehrlich carcinoma (setting [4]) and in the data set with Ehrlich carcinoma (setting [5]) were 182%, 226% and 228%, respectively. In data set [1], the LD50 is reported as 8 - 16 mg/kg/day x7.

With “selenium oxychloride·dioxane complex [Compound 7]”, the “Antineoplastic effect (T/C percent)” value was found to be 211% in the data set on Ehrlich carcinoma (setting [3]), 225% in the data set with Ehrlich carcinoma (setting [4]) and 194% in the data set on Ehrlich carcinoma (setting [5]). In addition, the LD50 in data set [1] is on record as 8 - 16 mg/kg/day x7.

For “selenium oxychloride·isoquinoline complex [Compound 6]”, the “Antineoplastic effect (T/C percent)” value in the data set on Ehrlich carcinoma (setting [6]) stood at 158.5%; with Ehrlich carcinoma (setting [3]), 211%; with Ehrlich carcinoma (setting [7]), 164.8%; in the data set on Ehrlich carcinoma (setting [4]) it was 206%; with Ehrlich carcinoma (setting [8]), 162.9%; in the data set on Ehrlich carcinoma (setting [5]), 187%.

As for “selenium oxychloride·quinoline complex [Compound 5]”, the “Antineoplastic effect (T/C percent)” value with Ehrlich carcinoma (setting [6]) is on record as 131.4%; in the data set with Ehrlich carcinoma (setting [3]), 131%; in the data set on Ehrlich carcinoma (setting [7]) it was 156.0%; in the data set on Ehrlich carcinoma (setting [4]), 199%; with Ehrlich carcinoma (setting [8]), 181.8%; with Ehrlich carcinoma (setting [5]), 269%. Besides, the LD50 in data set [1] is listed as more than 16 mg/kg/day x7.

As to selenium tetrabromide [Compound 20], the “Antineoplastic effect (T/C percent)” value in the data set on Ehrlich carcinoma (setting [3]) stood at 196%; with Ehrlich carcinoma (setting [4]), 272%; in the data set with Ehrlich carcinoma (setting [5]) it was 183%. Besides, the LD50 in data set [1] was 8-16 mg/kg/day x7.

Regarding selenium tetrachloride [Compound 19], the “Antineoplastic effect (T/C percent)” value with Ehrlich carcinoma (setting [2]) came to 167%; in the data set on Ehrlich carcinoma (setting [3]), 179%; with Ehrlich carcinoma (setting [4]), 249%; with Ehrlich carcinoma (setting [5]) it was 183%. Also, the LD50 in data set [1] is on record as more than 16 mg/kg/day x7.

Consider “selenium tetrachloride·pyridine complex [Compound 21]”, for which the “Antineoplastic effect (T/C percent)” value stood at 155% in the data set with Ehrlich carcinoma (setting [3]), 217% in the data set with Ehrlich carcinoma (setting [4]) and 246% with Ehrlich carcinoma (setting [5]). Besides, in data set [1], the LD50 is on record as 8-16 mg/kg/day x7.

The record behind these values is patent EP0182317A2, “Antineoplastic agent” (priority 1984, dated 1986).
